According to the NIST ThermoML archive (doi:10.1021/je8007606):

Experiment: excess molar enthalpy (molar enthalpy of mixing); xn = mol fraction of the nth substance listed
Conditions: 298.15 K, 101 kPa, Liquid, Calvet calorimetry

CCCCCCCCC [nonane] + CCCO
Conditions | excess molar enthalpy [kcal/mol]
x2 = 0.0794 | 0.118
x2 = 0.1401 | 0.144
x2 = 0.2595 | 0.17
x2 = 0.3588 | 0.174
x2 = 0.441 | 0.173
x2 = 0.5192 | 0.165
x2 = 0.5829 | 0.154
x2 = 0.7046 | 0.129
x2 = 0.7517 | 0.117
x2 = 0.7992 | 0.1
x2 = 0.8361 | 0.086
x2 = 0.878 | 0.0674
x2 = 0.911 | 0.0521
x2 = 0.9469 | 0.0332
x2 = 0.9689 | 0.0206
